# According to patent US10508113B2, “Inhibitors of tyrosine kinase 2 mediated signaling” (AbbVie Inc., priority 2018, dated 2019):
# What was measured:
# Jak1 = molecular target: T1, Jak1 (Homo sapiens, UniProt P23458); experiment: Jak1 (PSTAT3 TF1) alpha screen assay: inhibition of IL-6 induced phosphorylation of STAT3 in TF1 cells; type: cell-based; settings: calculated from tabulated EC50 data (Jak1 / Tyk2)
# T1 construct: endogenous in cells; host or cells: TF1 cells
# Summary of the method: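 IL-6-starved TF1 cells were preincubated 30 min at 37 °C with compound (top final 25 μM, 8-point 1:5 series), then stimulated with IL-6 (100 ng/mL final) for 30 min at 37 °C. Lysates were read for pSTAT3 (Tyr705) by AlphaScreen SureFire. EC50 from percent-activity dose-response curves.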
# Jak2 = molecular target: T2, Jak2 (Homo sapiens, UniProt O60674); experiment: Jak2 (PSTATS UT7) alpha screen assay: inhibition of EPO induced phosphorylation of STAT5 in UT7 cells; type: cell-based; settings: calculated from tabulated EC50 data (Jak2 / Tyk2)
# T2 construct: Cell Type: UT7 cells engineered to express the erythropoietin (EPO) receptor; endogenous in cells; host or cells: UT7 cells engineered to express the EPO receptor
# T2 sequence (O60674 whole entry): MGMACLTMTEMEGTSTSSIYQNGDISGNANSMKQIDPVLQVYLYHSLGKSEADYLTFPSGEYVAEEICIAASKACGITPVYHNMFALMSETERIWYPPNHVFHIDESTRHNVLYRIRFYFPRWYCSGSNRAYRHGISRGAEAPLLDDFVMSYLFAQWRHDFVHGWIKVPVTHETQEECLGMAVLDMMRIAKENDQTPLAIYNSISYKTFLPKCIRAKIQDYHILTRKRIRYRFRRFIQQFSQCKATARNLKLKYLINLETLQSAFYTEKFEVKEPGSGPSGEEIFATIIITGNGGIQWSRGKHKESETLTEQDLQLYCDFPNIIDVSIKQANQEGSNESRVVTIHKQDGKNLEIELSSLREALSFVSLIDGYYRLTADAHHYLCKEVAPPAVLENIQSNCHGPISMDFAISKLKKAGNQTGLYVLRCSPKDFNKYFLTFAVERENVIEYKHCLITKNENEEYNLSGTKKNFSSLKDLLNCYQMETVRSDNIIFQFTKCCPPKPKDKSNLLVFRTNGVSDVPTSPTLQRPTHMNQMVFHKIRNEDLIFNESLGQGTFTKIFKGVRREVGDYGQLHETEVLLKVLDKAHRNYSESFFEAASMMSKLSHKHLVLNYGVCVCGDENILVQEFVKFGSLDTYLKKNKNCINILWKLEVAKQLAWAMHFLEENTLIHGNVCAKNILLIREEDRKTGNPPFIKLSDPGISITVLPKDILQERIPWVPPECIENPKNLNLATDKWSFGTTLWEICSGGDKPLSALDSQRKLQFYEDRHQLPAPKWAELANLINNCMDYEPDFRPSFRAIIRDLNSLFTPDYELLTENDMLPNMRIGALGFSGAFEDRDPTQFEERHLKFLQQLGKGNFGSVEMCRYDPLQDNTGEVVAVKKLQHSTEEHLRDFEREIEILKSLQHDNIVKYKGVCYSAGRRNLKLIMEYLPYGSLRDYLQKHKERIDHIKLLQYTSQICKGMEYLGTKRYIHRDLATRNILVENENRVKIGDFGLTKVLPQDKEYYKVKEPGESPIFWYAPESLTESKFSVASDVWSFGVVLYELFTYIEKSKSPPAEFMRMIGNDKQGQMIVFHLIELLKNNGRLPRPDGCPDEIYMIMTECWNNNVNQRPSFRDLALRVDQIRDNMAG
# Procedure: 3. JAK2 (PSTATS UT7) ALPHA SCREEN ASSAY
# Erythropoietin (EPO) is known to transduce its signal through EPO receptor via Jak2. Activity against Jak2 was therefore measured by determining inhibition of EPO induced phosphorylation of STATS in UT7 cells. […] Materials
# Cell Type: UT7 cells engineered to express the erythropoietin (EPO) receptor; Culture Medium: Dulbecco's Modified Eagle Medium (DMEM) with 2 mM L-glutamine, 10 mM hydroxyethyl piperazineethanesulfonic acid (HEPES), 10% heat-inactivated fetal bovine serum (FBS) and Stock EPO (5000U in 250 uL, need 5U/mL, so add 250 μL to 1L of media); Assay Medium: 5% FBS ultra-low IgG and 1% Pen/Strep. Compounds were made-up in 100% dimethyl sulfoxide (DMSO).
# Day One - Starve Cells: 4 Flasks for one 384 plate (spin down @1000 rpm for 10 minutes and add DMEM with no EPO).
# Day Two—Compound Dilutions:
# i. Manual 8-point 1:3 dilution curve: 5 mM top concentration dispensed in row A of a
# Corning 96-well polypropylene plate, columns 2-12. DMSO dispensed in position A01 for low and high controls. Compounds were serially diluted 1:3 by adding 10 μL stock to 20 μL DMSO down the plate.
# ii. Media dilution of compounds: Serially diluted compounds were diluted 1:50 in assay medium by adding 4 μL compound to 196 μL assay medium in a Corning 96-well polypropylene plate.
# 384 Alpha Screen Plate Set up: Transferred 2.5 μL/well of compound solution from last dilution plate. Replicates were vertical, so that one column of the 96-well dilution plate goes into one column on the 384-well plate twice. Plated 1×10^5 starved cells/well in 5μL. Washed cells in 10 mL Hank's balanced salt solution (HBSS) after spinning down. Counted live cells. Multiplied by dilution factor and 10,000 (constant) to get the concentration of viable cells. Multiplied by volume of cells to get the total number of live cells. Divided by 20,000,000 cells/mL to get the volume needed. Subtracted the original volume to get the volume to be added to get the final concentration of cells. Mixed in reservoir if needed, ensuring that all cell clumps are broken up (if not broken up, they were removed from the suspension). Cells were plated at 5 μL/well in gray Alpha Screen 384-well plate. Spinned the plate to bring the contents to the bottom of the wells at 400 rpm for 2 minutes. Top final compound concentration: 25 μM. Sealed with adhesive and tapped gently. Incubated cells at 37° C. for 30 minutes.
# c. EPO Stimulation (p STATS)
# Once cells were in incubator, immediately prepared working stock of EPO (1 nM final assay concentration). EPO stock=2860 nM of sterile filtered liquid in sodium citrate buffer (1 liter of ddH2O containing 5.9 g of sodium citrate, 5.8 g of sodium chloride and 0.06 g of citric acid). Diluted 1:22.72 by adding 4.44 stock EPO to 95.6 pi assay media, then dilute again […] depending on how much volume is needed for the assay plates. Used assay medium to bring to volume. Added 2.5 μL EPO to each well. Spinned plate at 400 rpm briefly; tap the plate gently before covering with an adhesive seal. Cells were incubated at 37° C. for 20 minutes.
# Added 2.5 μL of 5X Lysis buffer to each well. Spinned plate at 400 rpm briefly. Incubated at room temperature (on orbital shaker) for 10 minutes.
# e. Protein (A) Acceptor Beads Preparation: (Light sensitive)
# Phosphorylated Signal Transducer and Activator of Transcription 5 (pSTAT5) was quantified using the PerkinElmer SureFire pSTATS (Tyrosine 694/699) Assay. Calculated total volume needed (wells×15 μL×30%). Divided total volume by 5 to get volume of activation buffer. Subtracted volume of activation buffer from total volume and divide by 40 to get volume of acceptor beads (add last). Total volume - acceptor bead volume - activation buffer to get volume of reaction buffer. Added 15 μL to each well and covered with foil. Shaked on orbital shaker for 2 hours at 500 rpm.
# f. Streptavidin Donor Beads Preparation:
# Calculated total volume needed (wells×6μL×30%). […]
# T1 sequence (P23458 whole entry): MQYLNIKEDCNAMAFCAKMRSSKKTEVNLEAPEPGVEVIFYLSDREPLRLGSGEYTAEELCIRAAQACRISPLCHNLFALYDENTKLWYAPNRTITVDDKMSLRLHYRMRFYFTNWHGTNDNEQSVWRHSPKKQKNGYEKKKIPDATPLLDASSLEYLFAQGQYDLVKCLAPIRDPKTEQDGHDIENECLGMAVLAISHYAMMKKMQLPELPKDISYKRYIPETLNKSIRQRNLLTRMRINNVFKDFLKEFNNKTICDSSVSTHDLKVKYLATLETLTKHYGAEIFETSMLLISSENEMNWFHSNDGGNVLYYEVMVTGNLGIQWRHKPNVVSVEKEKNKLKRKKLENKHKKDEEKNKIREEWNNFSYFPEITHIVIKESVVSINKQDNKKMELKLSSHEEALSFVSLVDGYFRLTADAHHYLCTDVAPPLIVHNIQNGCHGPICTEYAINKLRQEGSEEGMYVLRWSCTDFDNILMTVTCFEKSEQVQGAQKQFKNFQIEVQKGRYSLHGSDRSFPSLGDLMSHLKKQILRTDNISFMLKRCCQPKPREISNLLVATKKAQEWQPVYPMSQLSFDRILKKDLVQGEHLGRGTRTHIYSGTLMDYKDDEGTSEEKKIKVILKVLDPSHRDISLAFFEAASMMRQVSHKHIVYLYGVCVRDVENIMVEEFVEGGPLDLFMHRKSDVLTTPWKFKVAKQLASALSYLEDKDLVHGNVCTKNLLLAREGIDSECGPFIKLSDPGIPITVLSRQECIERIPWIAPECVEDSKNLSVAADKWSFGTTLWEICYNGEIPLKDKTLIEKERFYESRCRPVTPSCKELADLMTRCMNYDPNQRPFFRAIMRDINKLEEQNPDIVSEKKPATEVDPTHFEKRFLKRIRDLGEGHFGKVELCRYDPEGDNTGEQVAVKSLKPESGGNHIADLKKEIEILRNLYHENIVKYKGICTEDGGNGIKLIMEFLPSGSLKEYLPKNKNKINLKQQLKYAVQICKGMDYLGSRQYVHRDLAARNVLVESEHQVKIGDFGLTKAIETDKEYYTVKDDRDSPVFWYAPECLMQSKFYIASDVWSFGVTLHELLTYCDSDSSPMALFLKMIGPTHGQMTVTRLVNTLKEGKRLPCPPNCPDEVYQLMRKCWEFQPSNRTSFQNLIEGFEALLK
Tyk2 selectivity over Jak1 (Jak1),Tyk2 selectivity over Jak2 (Jak2),Compound
103-fold,>136-fold,"COCCOc1cc(-c2cn(C)c3cnc(NC(C)=O)cc23)nc([C@]2(CO)CCOC2)c1 [Example 22.8, (S)-N-(3-(6-(3-(hydroxymethyl)tetrahydrofuran-3-yl)-4-(2-methoxyethoxy)pyridin-2-yl)-1-methyl-1H-pyrrolo[2,3-c]pyridin-5-yl)acetamide]"
405-fold,>595-fold,"CO[C@@]1(c2cc(C(F)F)cc(-c3cn(C)c4cnc(NC(C)=O)cc34)n2)CCOC1 [Example 2.8, (R)-N-(3-(4-(difluoromethyl)-6-(3-methoxytetrahydrofuran-3-yl)pyridin-2-yl)-1-methyl-1H-pyrrolo[2,3-c]pyridin-5-yl)acetamide]"
1960-fold,>1000-fold,"COCCOc1cc(-c2cn(C)c3cnc(NC(C)=O)cc23)nc([C@]2(OC)CCOC2)c1 [Example 25, (R)-N-(3-(4-(2-methoxyethoxy)-6-(3-methoxytetrahydrofuran-3-yl)pyridin-2-yl)-1-methyl-1H-pyrrolo[2,3-c]pyridin-5-yl)acetamide]"
871-fold,>806-fold,"CO[C@@]1(c2cccc(-c3cn([C@H]4C[C@H](C#N)C4)c4cnc(NC(C)=O)cc34)n2)CCOC1 [Example 17, N-(1-((trans)-3-Cyanocyclobutyl)-3-(6-((R)-3-methoxytetrahydrofuran-3-yl)pyridin-2-yl)-1H-pyrrolo[2,3-c]pyridin-5-yl)acetamide]"
138-fold,>266-fold,"CO[C@@]1(c2cc(C#N)cc(-c3cn(C)c4cnc(NC(N)=O)cc34)n2)CCOC1 [Example 12.3, (R)-1-(3-(4-cyano-6-(3-methoxytetrahydrofuran-3-yl)pyridin-2-yl)-1-methyl-1H-pyrrolo[2,3-c]pyridin-5-yl)urea]"
>1087-fold,>272-fold,"COCc1cc(-c2cn(C)c3cnc(NC(=O)CO)cc23)nc([C@]2(OC)CCOC2)c1 [Example 24, (R)-2-hydroxy-N-(3-(4-(methoxymethyl)-6-(3-methoxytetrahydrofuran-3-yl)pyridin-2-yl)-1-methyl-1H-pyrrolo[2,3-c]pyridin-5-yl)acetamide]"
39-fold,>28-fold,CO[C@@]1(c2cc(OCC[C@@H](C)O)cc(-c3cn(C)c4cnc(NC(C)=O)cc34)n2)CCOC1 [Example 7]
>272-fold,>272-fold,"CO[C@H](C)COc1cc(-c2cn(C)c3cnc(NC(C)=O)cc23)nc([C@]2(OC)CCOC2)c1 [Example 22.10, N-(3-(4-((R)-2-methoxypropoxy)-6-((R)-3-methoxytetrahydrofuran-3-yl)pyridin-2-yl)-1-methyl-1H-pyrrolo[2,3-c]pyridin-5-yl)acetamide]"
243-fold,>174-fold,"CO[C@@]1(c2cc(C(F)F)cc(-c3cn([C@H]4C[C@H](C#N)C4)c4cnc(NC(C)=O)cc34)n2)CCOC1 [Example 17.2, N-(1-((trans)-3-cyanocyclobutyl)-3-(4-(difluoromethyl)-6-((R)-3-methoxytetrahydrofuran-3-yl)pyridin-2-yl)-1H-pyrrolo[2,3-c]pyridin-5-yl)acetamide]"
840-fold,>1000-fold,"CO[C@@]1(c2cc(C)cc(-c3cn(C)c4cnc(NC(N)=O)cc34)n2)CCOC1 [Example 1b.2, (R)-1-(3-(6-(3-methoxytetrahydrofuran-3-yl)-4-methylpyridin-2-yl)-1-methyl-1H-pyrrolo[2,3-c]pyridin-5-yl)urea]"
300-fold,>556-fold,"CO[C@@]1(c2cccc(-c3cn([C@@H]4CC4(F)F)c4cnc(NC(N)=O)cc34)n2)CCOC1 [Example 1.2, 1-(1-((R)-2,2-difluorocyclopropyl)-3-(6-((R)-3-methoxytetrahydrofuran-3-yl)pyridin-2-yl)-1H-pyrrolo[2,3-c]pyridin-5-yl)urea]"
>317-fold,>198-fold,"COCc1cc(-c2cn(C)c3cnc(NC(C)=O)cc23)nc([C@]2(OC)CCOC2)c1 [Example 2, (R)-N-(3-(4-(Methoxymethyl)-6-(3-methoxytetrahydrofuran-3-yl)pyridin-2-yl)-1-methyl-1H-pyrrolo[2,3-c]pyridin-5-yl)acetamide]"
470-fold,>187-fold,"CO[C@@]1(c2cc(O[C@@H](C)CCO)cc(-c3cn(C)c4cnc(NC(C)=O)cc34)n2)CCOC1 [Example 14.4, N-(3-(4-(((S)-4-hydroxybutan-2-yl)oxy)-6-((R)-3-methoxytetrahydrofuran-3-yl)pyridin-2-yl)-1-methyl-1H-pyrrolo[2,3-c]pyridin-5-yl)acetamide]"
92-fold,>424-fold,"CO[C@@]1(c2cccc(-c3cn(C)c4cnc(NC(N)=O)cc34)n2)CCOC1 [Example 1, (R)-1-(3-(6-(3-Methoxytetrahydrofuran-3-yl)pyridin-2-yl)-1-methyl-1H-pyrrolo[2,3-c]pyridin-5-yl)urea]"
>500-fold,>500-fold,"CO[C@@]1(c2cc(C(F)F)cc(-c3cn(C)c4cnc(NC(=O)CO)cc34)n2)CCOC1 [Example 26, (R)-N-(3-(4-(difluoromethyl)-6-(3-methoxytetrahydrofuran-3-yl)pyridin-2-yl)-1-methyl-1H-pyrrolo[2,3-c]pyridin-5-yl)-2-hydroxyacetamide]"
83-fold,>1389-fold,"Cn1cc(-c2cncc([C@]3(C)CCOC3)n2)c2cc(NC(N)=O)ncc21 [Example 1b.5, (S)-1-(1-methyl-3-(6-(3-methyltetrahydrofuran-3-yl)pyrazin-2-yl)-1H-pyrrolo[2,3-c]pyridin-5-yl)urea]"
514-fold,>714-fold,"COCc1cc(-c2cn(C)c3cnc(NC(N)=O)cc23)nc([C@]2(OC)CCOC2)c1 [Example 3, (R)-1-(3-(4-(Methoxymethyl)-6-(3-methoxytetrahydrofuran-3-yl)pyridin-2-yl)-1-methyl-1H-pyrrolo[2,3-c]pyridin-5-yl)urea]"
